From patent US20240082293A1, “A VAGINAL CONTRACEPTIVE COMPOSITION FOR REINFORCEMENT OF MUCUS BARRIER PROPERTIES” (CIRQLE BIOMEDICAL CONTRACEPTION ApS, priority 2019, published 2024)

System: human sperm penetration through human ovulatory cervical mucus
Assay: Sperm penetration assay through ovulatory cervical mucus in capillaries (phase contrast microscopy)
Format: cell-based
Details: for sperm penetration through mucus treated with poly-L-lysine (barrier reinforcing effect): PLL 5 mg/mL in 32.5 mM lactic acid solution, 30 minutes after exposure to undiluted sperm
Procedure: Semen samples of patients and volunteers collected at the Andrology, Sexual Medicine, Transmedicine, clinic (ANOVA, Karolinska University Hospital, Sweden) were run through standard semen kinematic analyses and sperm penetration assays no later than 3 h after collection. Data were obtained for the collection time, abstinence time, and semen volume. Semen was gently liquefied for 30 min on a rocker in an incubation chamber heated up to 37° C., after complete collection of ejaculates by masturbation. The viscosity of semen was determined visually and by pipetting. Semen was microscopically analysed by pipetting 6 μl of specimen in pre-warmed Leja® (Netherland) counting chamber slides (20 micron). Subsequently, specimens were assessed via clinical ECLIPSE 50i microscope (Nikon Instruments, Japan) equipped with stage heater MS 100 (37° C., Linkam Scientific Instruments, UK), 10× objective (Ph1) and 0.5× charge coupled device camera UI-1540LE-M-HQ (IDS Imaging Development Systems GmbH, Germany) with total magnification of 5×. The system was connected to the Computer Aided Semen Analysis software QualiSperm (v3.0.9.486, AKYmed, Switzerland). Beside the sperm concentration [106/m1], the progressive motility [%], motility [%], immotility [%], velocity [μm/s], sperm size [μm2], and number of cells were measured. Semen samples meeting the following criteria were included in this study: volume of >1.5 ml, concentration of >15×10^6/mland >40% progressive motility. These criteria reflect reference limits of the World Health Organization (WHO) (“WHO Laboratory Manual for the Examination and Processing of Human Semen” 2010) and values for normal spermatozoa as stated in Bjorndahl (Lars Bjorndahl. 2011. “What Is Normal Semen Quality? On the Use and Abuse of Reference Limits for the Interpretation of Semen Analysis Results.” Human Fertility 14 (3): 179-86). In each run, ten values were generated by assessing five fields in two chambers.
Ovulatory cervical mucus (CVM) (the CVM with highest penetrability) was collected from healthy donors at the Karolinska University Hospital. […]

| Substance | sperm penetration through mucus treated with poly-L-lysine (barrier reinforcing effect) | point at which no sperm is seen (distance into the mucus) (sperm numbers assessed 30 minutes after exposure to undiluted sperm, polymer in lactic acid solution) |
| --- | --- | --- |
| poly-L-lysine [66 KDa PLL] | able to prevent the entrance of the sperm | around 3 cm |
| poly-L-lysine [low molecular weight PLL] | did not have any effect | – |
